From PMC9890130 (Clinical cancer research : an official journal of the …, 2023)
One block for each compound: values may come before it. Bridge positions count the residues as written; N and C are the ends. Square brackets hold non-standard residues; d marks the D form. Peptide text beside a SMILES is read from it. * marks the point of attachment. DOTA = O=C(O)CN1CCN(CC(=O)O)CCN(CC(=O)*)CCN(CC(=O)O)CC1; Trp(1-CH2COOH) = N[C@@H](Cc1cn(CC(=O)O)c2ccccc12)C(=O)O; Hyp = O=C(O)[C@@H]1C[C@@H](O)CN1; NMeNle = CCCC[C@H](NC)C(=O)O; NMeA = CN[C@@H](C)C(=O)O

Tests used:
[1] = Ex vivo biodistribution in SCaBER xenografts; design: species or system NSG mice; conditions: NSG, mouse, tumor, iv, 50 uCi, total radioactivity
[2] = predicted residence time in human organ from mouse pharmacokinetic data
[3] = In vivo stability of [^68Ga]Ga-DK223; design: species or system mice; conditions: urine collected at 60 min after i.v. injection, radio-HPLC; n=3
[4] = test system: SUM149 cells; test: In vitro binding assay with [^68Ga]Ga-DK223; assay type: cell-based, human; conditions: 1×10^6 cells, ~1 μCi, 45 min at 4°C
[5] = test system: MDAMB231 xenografts; test: Ex vivo biodistribution in mice with MDAMB231 xenografts; conditions: NSG mice bearing MDAMB231 tumors, n=4-5
[6] = test system: MDAMB231 xenografts; conditions: NSG, mouse, in vivo, iv, 1 h
[7] = in vivo; conditions: NSG, mouse, iv, total radioactivity
[8] = Ex vivo biodistribution in BFTC909 xenografts; design: species or system NSG mice; conditions: NSG, mouse, tumor, iv, 50 uCi, total radioactivity
[9] = test system: SCaBER cells; test: In vitro binding assay with [^68Ga]Ga-DK223; assay type: cell-based, human; conditions: 1×10^6 cells, ~1 μCi, 45 min at 4°C
[10] = test system: BFTC909 cells; test: [^68Ga]Ga-DK223 uptake in BFTC909 cells with and without aPD-L1 mAbs; assay type: cell-based, human; conditions: 60 nM mAb
[11] = cited from earlier work
[12] = test system: BFTC909 xenografts; test: [^68Ga]Ga-DK223 PET-CT of BFTC909 xenografts after aPD-L1 treatment; assay type: in vivo, NSG mice
[13] = test system: BFTC909 xenografts; assay type: in vivo, NSG mice; conditions: 10 mg/kg
[14] = %ID/g [^68Ga]Ga-DK223, Adrenals
[15] = %ID/g [^68Ga]Ga-DK223, Pancreas

tissue uptake at 1 h [1]: < 3 %ID/g
Residence time, Adrenals [2]: 0.00014 h
Residence time, Bladder [2]: 0.00187 h
Residence time, Blood [2]: 0.1753 h
Residence time, Brain [2]: 0.00118 h
Residence time, Femur [2]: 0.03956 h
Residence time, Heart [2]: 0.0151 h
Residence time, Kidney [2]: 0.0337 h
Residence time, Large Intestine (with contents) [2]: 0.00099 h
Residence time, Liver [2]: 0.01633 h
Residence time, Lung [2]: 0.03245 h
Residence time, Muscle [2]: 0.06168 h
Residence time, Ovaries [2]: 0.00011 h
Residence time, Pancreas [2]: 0.00052 h
Residence time, Small Intestine (with contents) [2]: 0.00453 h
Residence time, Spleen [2]: 0.00129 h
Residence time, Stomach (with contents) [2]: 0.00072 h
Residence time, Thymus [2]: 0.00047 h
Residence time, Uterus [2]: 0.00114 h
in vivo stability, urine [3]: no metabolic cleavage
%ID/g [^68Ga]Ga-DK223, Kidney ([5]; 5 min after injection): 28.59 ± 2.4 %ID/g
%ID/g [^68Ga]Ga-DK223, Kidney ([5]; 30 min after injection): 24.4 ± 1.5 %ID/g
%ID/g [^68Ga]Ga-DK223, Kidney ([5]; 60 min after injection): 22.99 ± 2.01 %ID/g
%ID/g [^68Ga]Ga-DK223, Kidney ([5]; 90 min after injection): 16.23 ± 0.8 %ID/g
%ID/g [^68Ga]Ga-DK223, Kidney ([5]; 180 min after injection): 19.14 ± 1.32 %ID/g
%ID/g [^68Ga]Ga-DK223, Adrenals [6]: 4.74 ± 3.64 %ID/g
%ID/g [^68Ga]Ga-DK223, Blood [6]: 3.05 ± 0.11 %ID/g
%ID/g [^68Ga]Ga-DK223, Femur [6]: 0.89 ± 0.06 %ID/g
%ID/g [^68Ga]Ga-DK223, Heart [6]: 0.95 ± 0.07 %ID/g
%ID/g [^68Ga]Ga-DK223, Lung [6]: 4.7 ± 0.42 %ID/g
%ID/g [^68Ga]Ga-DK223, Muscle [6]: 0.36 ± 0.04 %ID/g
%ID/g [^68Ga]Ga-DK223, Tumor [6]: 15.21 ± 1.43 %ID/g
%ID/g [^68Ga]Ga-DK223, Ovaries ([6]; female): 0.93 ± 0.08 %ID/g
tissue uptake at 0.5 h [7, 14]: 2.22 ± 0.19 %ID/g
tissue uptake at 1.5 h [7, 14]: 0.18 ± 0.03 %ID/g
tissue uptake at 3 h [7, 14]: 0.16 ± 0.11 %ID/g
tissue uptake at 0.5 h ([7]; %ID/g [^68Ga]Ga-DK223, Bladder): 4.09 ± 0.49 %ID/g
tissue uptake at 1 h ([7]; %ID/g [^68Ga]Ga-DK223, Bladder): 1.42 ± 0.12 %ID/g
tissue uptake at 1.5 h ([7]; %ID/g [^68Ga]Ga-DK223, Bladder): 0.78 ± 0.07 %ID/g
tissue uptake at 3 h ([7]; %ID/g [^68Ga]Ga-DK223, Bladder): 1.28 ± 0.32 %ID/g
tissue uptake at 0.5 h ([7]; %ID/g [^68Ga]Ga-DK223, Blood): 7.63 ± 0.87 %ID/g
tissue uptake at 1.5 h ([7]; %ID/g [^68Ga]Ga-DK223, Blood): 2.14 ± 0.08 %ID/g
tissue uptake at 3 h ([7]; %ID/g [^68Ga]Ga-DK223, Blood): 1.72 ± 0.04 %ID/g
tissue uptake at 0.5 h ([7]; %ID/g [^68Ga]Ga-DK223, Brain): 0.22 ± 0.05 %ID/g
tissue uptake at 1.5 h ([7]; %ID/g [^68Ga]Ga-DK223, Brain): 0.05 ± 0.01 %ID/g
tissue uptake at 3 h ([7]; %ID/g [^68Ga]Ga-DK223, Brain): 0.04 ± 0.01 %ID/g
tissue uptake at 0.5 h ([7]; %ID/g [^68Ga]Ga-DK223, Femur): 1.74 ± 0.14 %ID/g
tissue uptake at 1.5 h ([7]; %ID/g [^68Ga]Ga-DK223, Femur): 0.59 ± 0.04 %ID/g
tissue uptake at 3 h ([7]; %ID/g [^68Ga]Ga-DK223, Femur): 0.64 ± 0.07 %ID/g
tissue uptake at 0.5 h ([7]; %ID/g [^68Ga]Ga-DK223, Heart): 2.49 ± 0.3 %ID/g
tissue uptake at 1.5 h ([7]; %ID/g [^68Ga]Ga-DK223, Heart): 0.73 ± 0.03 %ID/g
tissue uptake at 3 h ([7]; %ID/g [^68Ga]Ga-DK223, Heart): 0.46 ± 0.03 %ID/g
tissue uptake at 0.5 h ([7]; %ID/g [^68Ga]Ga-DK223, Liver): 2.85 ± 0.41 %ID/g
tissue uptake at 1 h ([7]; %ID/g [^68Ga]Ga-DK223, Liver): 1.31 ± 0.08 %ID/g
tissue uptake at 1.5 h ([7]; %ID/g [^68Ga]Ga-DK223, Liver): 0.91 ± 0.11 %ID/g
tissue uptake at 3 h ([7]; %ID/g [^68Ga]Ga-DK223, Liver): 0.82 ± 0.09 %ID/g
tissue uptake at 0.5 h ([7]; %ID/g [^68Ga]Ga-DK223, Lung): 11 ± 2.29 %ID/g
tissue uptake at 1.5 h ([7]; %ID/g [^68Ga]Ga-DK223, Lung): 5.3 ± 1.68 %ID/g
tissue uptake at 3 h ([7]; %ID/g [^68Ga]Ga-DK223, Lung): 2.98 ± 0.71 %ID/g
tissue uptake at 0.5 h ([7]; %ID/g [^68Ga]Ga-DK223, Muscle): 0.85 ± 0.09 %ID/g
tissue uptake at 1.5 h ([7]; %ID/g [^68Ga]Ga-DK223, Muscle): 0.17 ± 0.01 %ID/g
tissue uptake at 3 h ([7]; %ID/g [^68Ga]Ga-DK223, Muscle): 0.08 ± 0.02 %ID/g
tissue uptake at 0.5 h [7, 15]: 2.01 ± 0.54 %ID/g
tissue uptake at 1 h [7, 15]: 0.45 ± 0.05 %ID/g
tissue uptake at 1.5 h [7, 15]: 0.39 ± 0.01 %ID/g
tissue uptake at 3 h [7, 15]: 0.24 ± 0.03 %ID/g
tissue uptake at 0.5 h ([7]; %ID/g [^68Ga]Ga-DK223, Spleen): 2.45 ± 0.51 %ID/g
tissue uptake at 1 h ([7]; %ID/g [^68Ga]Ga-DK223, Spleen): 1.05 ± 0.07 %ID/g
tissue uptake at 1.5 h ([7]; %ID/g [^68Ga]Ga-DK223, Spleen): 0.71 ± 0.06 %ID/g
tissue uptake at 3 h ([7]; %ID/g [^68Ga]Ga-DK223, Spleen): 0.58 ± 0.03 %ID/g
tissue uptake at 0.5 h ([7]; %ID/g [^68Ga]Ga-DK223, Thymus): 7.02 ± 1.06 %ID/g
tissue uptake at 1 h ([7]; %ID/g [^68Ga]Ga-DK223, Thymus): 3.53 ± 0.27 %ID/g
tissue uptake at 1.5 h ([7]; %ID/g [^68Ga]Ga-DK223, Thymus): 1.26 ± 0.47 %ID/g
tissue uptake at 3 h ([7]; %ID/g [^68Ga]Ga-DK223, Thymus): 1.52 ± 0.75 %ID/g
tissue uptake at 0.5 h ([7]; %ID/g [^68Ga]Ga-DK223, Tumor): 14.3 ± 1.54 %ID/g
tissue uptake at 1.5 h ([7]; %ID/g [^68Ga]Ga-DK223, Tumor): 12.2 ± 0.32 %ID/g
tissue uptake at 3 h ([7]; %ID/g [^68Ga]Ga-DK223, Tumor): 11.6 ± 0.79 %ID/g
tissue uptake at 1 h [8]: 21 ± 2.1 %ID/g
Compound: CCCC[C@H]1C(=O)N(C)[C@@H](CCCC)C(=O)N[C@@H](CCCCNC(=O)CN2CCN(CC(=O)O)CCN(CC(=O)O)CCN(CC(=O)O)CC2)C(=O)N[C@H](C(=O)NCC(N)=O)CSCC(=O)N[C@@H](Cc2ccc(O)cc2)C(=O)N(C)[C@@H](C)C(=O)N[C@@H](CC(N)=O)C(=O)N2CCC[C@H]2C(=O)N[C@@H](Cc2c[nH]cn2)C(=O)N[C@@H](CCC(=O)O)C(=O)N2C[C@H](O)C[C@H]2C(=O)N[C@@H](Cc2c[nH]c3ccccc23)C(=O)N[C@@H](CO)C(=O)N[C@@H](Cc2cn(CC(=O)O)c3ccccc23)C(=O)N1C [[^68Ga]Ga-DK223, metal not drawn] ({CH2CO}-Y[NMeA]NPHE[Hyp]WS[Trp(1-CH2COOH)][NMeNle][NMeNle]K(DOTA)CG-NH2; thioether N-14)
in vitro uptake [4]: less than 2 %IA
in vitro uptake [9]: less than 2 %IA

Compound: avelumab
[^68Ga]Ga-DK223 uptake in BFTC909 cells in presence of mAb [10]: less than 1%
half-life [11]: 146 h
[^68Ga]Ga-DK223 uptake in tumors (PET) after mAb treatment ([12]; 24 h after 10 mg/kg mAb i.v., PET 60 min after tracer): significantly lower uptake
[^68Ga]Ga-DK223 uptake in tumors (PET) after mAb treatment ([12]; 72 h after 10 mg/kg mAb i.v., avelumab compared with durvalumab): increased
reduction of [^68Ga]Ga-DK223 tumor uptake versus saline ([13]; 24 h treatment, P<0.0001): more than 80%
accessible PD-L1 levels ([13]; 120 h of treatment, tumor %ID/g as fraction of saline group): increase in accessible PD-L1 levels
[^68Ga]Ga-DK223 tumor uptake versus saline controls ([13]; 120 h treatment): no significant differences
